Experimental data taken from article PMC3938192 (ACS chemical biology, 2013).
Substitutions are numbered along the chain they refer to.

Key:
Format in all cases: cell-based
Pkd1-WT = biological target: T1, Pkd1-WT (Mus musculus, UniProt Q62101); assay: Pkd1-WT autophosphorylation in transfected HEK 293T cells; details: 1 µM
T1 sequence (Q62101 1-918): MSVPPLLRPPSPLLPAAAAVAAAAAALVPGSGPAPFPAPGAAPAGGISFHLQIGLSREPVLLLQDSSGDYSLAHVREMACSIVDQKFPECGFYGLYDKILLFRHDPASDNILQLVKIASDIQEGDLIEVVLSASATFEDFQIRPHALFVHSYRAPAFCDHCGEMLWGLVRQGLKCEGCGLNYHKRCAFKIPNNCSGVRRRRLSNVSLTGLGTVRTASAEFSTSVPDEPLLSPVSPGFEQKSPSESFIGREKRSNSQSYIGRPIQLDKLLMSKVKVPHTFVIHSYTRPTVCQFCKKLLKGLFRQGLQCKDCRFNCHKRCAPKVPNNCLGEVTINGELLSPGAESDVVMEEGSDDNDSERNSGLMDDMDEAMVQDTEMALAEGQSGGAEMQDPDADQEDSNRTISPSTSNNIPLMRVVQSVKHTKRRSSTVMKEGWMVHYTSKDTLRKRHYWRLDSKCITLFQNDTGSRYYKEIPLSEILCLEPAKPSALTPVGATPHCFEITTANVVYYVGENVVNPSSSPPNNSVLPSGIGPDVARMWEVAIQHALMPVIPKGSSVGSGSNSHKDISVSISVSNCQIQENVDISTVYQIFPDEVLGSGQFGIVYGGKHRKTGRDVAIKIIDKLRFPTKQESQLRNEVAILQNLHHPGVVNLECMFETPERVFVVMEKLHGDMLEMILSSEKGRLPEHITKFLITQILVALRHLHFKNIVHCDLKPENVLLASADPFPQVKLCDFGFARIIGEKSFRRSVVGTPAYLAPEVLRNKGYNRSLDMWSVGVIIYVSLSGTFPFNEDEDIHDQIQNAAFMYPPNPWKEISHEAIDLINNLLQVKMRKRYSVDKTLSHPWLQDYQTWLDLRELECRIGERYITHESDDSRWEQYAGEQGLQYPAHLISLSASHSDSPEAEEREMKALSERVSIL

Pkd1-AS2 (M665A) = biological target: T2, Pkd1-AS2 (M665A) (Mus musculus, UniProt Q62101, M665A); assay: Pkd1-AS2 autophosphorylation in transfected HEK 293T cells; details: 1 µM
T2 sequence (Q62101 1-918 M665A): T1 sequence (Q62101 1-918) with M665A

Venus-Pkd1-WT = biological target: T3, Venus-Pkd1-WT (Mus musculus, UniProt Q62101); assay: Puncta formation of Venus-Pkd1-WT in neurons; details: 1 µM, one hour of inhibitor treatment
T3 sequence (Q62101 1-918): T1 sequence (Q62101 1-918)

Venus-Pkd1-AS2 = biological target: T4, Venus-Pkd1-AS2 (Mus musculus, UniProt Q62101, M665A); assay: Puncta formation of Venus-Pkd1-AS2 in neurons; details: 1 µM, one hour of inhibitor treatment
T4 sequence (Q62101 1-918 M665A): T1 sequence (Q62101 1-918) with M665A

SMILES: CC(C)(C)n1nc(-c2cccc3ccccc23)c2c(N)ncnc21 [1NA-PP1]
- effect on autophosphorylation by Pkd1-WT (Pkd1-WT): but not the wild type kinase
- effect on autophosphorylation by Pkd1-AS2 (Pkd1-AS2 (M665A)): completely abrogates autophosphorylation
- puncta formation, Venus-Pkd1-WT neurons (Venus-Pkd1-WT): unaffected
- puncta formation, Venus-Pkd1-AS2 neurons (Venus-Pkd1-AS2): forming discrete puncta
